Test results taken from ChEMBL document CHEMBL2074258 (Drug Metab Dispos, 2005).
Values belong to the molecule of their own block, whether it stands above or below them.

Tests used:
[1] = target: T1, Solute carrier family 22 member 2 (Rattus norvegicus, UniProt Q9R0W2); experiment: TP_TRANSPORTER: inhibition pramipexole uptake in rOCT2-injected oocytes; assay type: functional, cell-based, Oocyte
T1 sequence (Q9R0W2 whole entry): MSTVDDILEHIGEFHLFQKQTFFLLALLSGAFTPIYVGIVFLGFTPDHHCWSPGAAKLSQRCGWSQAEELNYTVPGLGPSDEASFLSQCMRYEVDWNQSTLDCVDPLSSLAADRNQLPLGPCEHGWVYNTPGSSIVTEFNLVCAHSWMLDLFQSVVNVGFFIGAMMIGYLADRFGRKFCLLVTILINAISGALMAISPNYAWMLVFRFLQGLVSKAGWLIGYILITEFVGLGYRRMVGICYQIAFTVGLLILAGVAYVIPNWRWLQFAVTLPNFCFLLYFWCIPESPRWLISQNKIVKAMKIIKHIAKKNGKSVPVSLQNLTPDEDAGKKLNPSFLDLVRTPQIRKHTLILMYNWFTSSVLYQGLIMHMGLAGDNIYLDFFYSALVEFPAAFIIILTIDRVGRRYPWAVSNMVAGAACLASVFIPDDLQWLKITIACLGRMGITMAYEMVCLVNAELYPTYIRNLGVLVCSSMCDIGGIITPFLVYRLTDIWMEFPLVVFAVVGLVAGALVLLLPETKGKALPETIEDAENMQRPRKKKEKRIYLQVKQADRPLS

[2] = target: T2, Solute carrier family 22 member 1 (Rattus norvegicus, UniProt Q63089); experiment: TP_TRANSPORTER: inhibition pramipexole uptake in rOCT1-injected oocytes; assay type: functional, cell-based, Oocyte
T2 sequence (Q63089 whole entry): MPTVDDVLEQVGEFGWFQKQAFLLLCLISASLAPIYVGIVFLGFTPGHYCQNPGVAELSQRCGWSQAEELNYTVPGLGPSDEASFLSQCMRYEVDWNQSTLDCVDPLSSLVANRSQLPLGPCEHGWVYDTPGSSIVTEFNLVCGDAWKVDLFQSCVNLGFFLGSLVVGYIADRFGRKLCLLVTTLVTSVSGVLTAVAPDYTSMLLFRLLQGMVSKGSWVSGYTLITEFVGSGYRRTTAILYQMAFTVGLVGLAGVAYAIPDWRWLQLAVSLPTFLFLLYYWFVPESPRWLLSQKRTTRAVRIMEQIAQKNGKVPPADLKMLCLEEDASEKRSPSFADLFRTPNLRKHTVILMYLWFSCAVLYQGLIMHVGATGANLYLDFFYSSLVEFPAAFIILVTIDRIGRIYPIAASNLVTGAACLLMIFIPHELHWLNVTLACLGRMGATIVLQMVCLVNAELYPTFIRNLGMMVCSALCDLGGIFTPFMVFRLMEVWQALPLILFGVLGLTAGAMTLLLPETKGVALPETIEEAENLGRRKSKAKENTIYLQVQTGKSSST

[3] = target: T1, Solute carrier family 22 member 2; experiment: TP_TRANSPORTER: uptake in Xenopus laevis oocytes; details: Xenopus laevis oocytes expressing the transporter
[4] = substrate: CCCN[C@H]1CCc2nc(N)sc2C1; experiment: cells, lysate or membranes named

IC50 [1]: 10.7 µM
IC50 [2]: 164 µM
Molecule: C[C@]12C[C@H](O)[C@H]3[C@@H](CCC4=CC(=O)CC[C@@]43C)[C@@H]1CC[C@@H]2C(=O)CO [CORTICOSTERONE]

Km [3]: 17 µM
Molecule: CCCN[C@H]1CCc2nc(N)sc2C1 [PRAMIPEXOLE]

IC50 [1]: 167 µM
Molecule: CCN(CC)CCNC(=O)c1ccc(N)cc1 [PROCAINAMIDE]

The next lines start with the molecule.

Molecule: NC12CC3CC(CC(C3)C1)C2 [AMANTADINE]
IC50 [1]: 271 µM
IC50 [2]: 76.3 µM

B1: Solute carrier family 22 member 2 (Rattus norvegicus) (protein)
chain: T1 sequence (Q9R0W2 whole entry)
Km [4]: 17 µM
